From patent publication US20190030053A1, “COMPOSITION FOR INCREASING EXPRESSION OF PGC-1alpha” (BENEBIOSIS CO., LTD., priority 2016, published 2019) come the findings set out here.

Test [1] relates to telomerase. The experiment in a line: Telomerase activity (TRAP) in vitro, MASMs of aging stimulation models. The format is cell-based, mouse. The settings on record: MASMs of aging stimulation model control group, cultured 1 day with SL. The procedure: In FIGS. 18a and 18b, the telomerase activity was measured using TRAP protocol (Wright et al., 1995). In summary, cell pellets were lysed in CHAPS lysis solvent (containing ribnuclease inhibitor), followed by incubation at 4° C. for 30 minutes. Cell extracts ([…]) were TRAPeze reaction mix (telomerase substrate (TS) primer, fluorescent-labeled RP (reverse) primer, control standard template, and sulforhodamine-labeled standard K2 primer). The TS primer was elongated at 30° C. for 30 minutes, and then PCR was performed. The fluorescence of the thus obtained TRAP product was measured using a fluorescent plate reader to quantify telomerase activity. Relative telomerase activity was normalized by the ratio of native […] to sulforhodamine (internal control standard), expressed as a percentage. Fluorescein (M0250) was purchased from Marker Gene Technologies, Inc. H2-dichlorofluorescin diacetate (DCFDA) was purchased from Molecular Probes. MitoSOX™ Red, MitoTracker Green FM, and MitoTracker® Orange CMTMRos (MTO) were purchased from Invitrogen. 10,000× SYBR® Gold dye was purchased from Molecular Probes, Inc. Nuclear/Cytosol fractionation kit (K266-100) was purchased from BioVision. TRAPeze® XL telomerase detection kit (S7707) was purchased from MILLIPORE. Telomere PNA FISH Kit/Cy3 (K5326) was purchased from Dako. […]

Test [2] concerns ICH models. The experiment in a line: Modified limb placing test (MLPT) in intracerebral hemorrhage (ICH) models. The test is classed as in vivo, rat. The note with it: first day and third day after ICH induction; intraperitoneal. From the text: In order to investigate the changes in ischemic volume and modified limb placing test (MLPT) score by treatment with SL (3′-SL & 6′-SL) compositions in stroke models, 4-week-old mice were purchased from Central Lab Animal (Korea). Water was freely accessible, and a commercially available pellet feed (Dooyeul Biotech, Korea) was given for one week. Stroke models involving temporary and permanent middle cerebral artery (MCA) occlusion and intracerebral hemorrhage (ICH) were fabricated using 6-week-old male Sprague-Dawley rats (weight, average 185.3±15.8 g) and male BALB/c mice weight, average 24.6±3.8 g). […] The model was suspended at 10 cm above a table, and the stretch of the forelimbs toward the table was scored (0 points for normal stretch and 1 point for abnormal fexion). […] The evaluation results for three tasks were scored in the following manner: 0 points for normal performance, 1 point for performance with a delay (at least 2 seconds) or incomplete performance, and 2 points for no performance. […]

Turning to `CC(=O)N[C@H]1[C@H]([C@H](O)[C@H](O)CO)O[C@@](O[C@H]2[C@@H](O)[C@@H](CO)O[C@@H](O[C@H]3[C@H](O)[C@@H](O)C(O)O[C@@H]3CO)[C@@H]2O)(C(=O)O)C[C@@H]1O` (stereo partly drawn) [3′-SL, α-NeuNAc-(2→3)-β-D-Gal-(1→4)-D-Glc], the “telomerase activity in MASMs (in vitro)” value in test [1] is on record as “increased telomerase activity”. The “MLPT test score vs control group (neurodegeneration inhibitory effects)” value in test [2] is reported as “relatively low compared with 6′-SL”.
Regarding `CC(=O)N[C@H]1[C@H]([C@H](O)[C@H](O)CO)O[C@@](OC[C@H]2O[C@@H](O[C@H]3[C@H](O)[C@@H](O)[C@H](O)O[C@@H]3CO)[C@H](O)[C@@H](O)[C@H]2O)(C(=O)O)C[C@@H]1O` [6′-SL, α-NeuNAc-(2→6)-β-D-Gal-(1→4)-D-Glc], the “telomerase activity in MASMs (in vitro)” value in test [1] is “increased telomerase activity”. Further, the “MLPT test score vs control group (neurodegeneration inhibitory effects)” value in test [2] is “lower”.
